Here are results for 2 compounds from patent publication US5326764A, “Method for the treatment of hyperproliferative disorders” (Yale University, priority 1993, dated 1994).

This assay has as its system human neonatal foreskin keratinocytes. The experiment in a line: Keratinocyte growth by cell counting after seven days. The class given is cell-based. The settings on record: 168 h.

As usually defined, the inhibition is the share of the control response that was lost under treatment. In the case of `O=c1[nH]cc(F)c(=O)[nH]1` [5-fluorouracil], for the setting “read-out: inhibition of cell growth”, the inhibition at 0.5 µM was found to be 30%.
With `CN(Cc1cnc2nc(N)nc(N)c2n1)c1ccc(C(=O)N[C@@H](CCC(=O)O)C(=O)O)cc1` [methotrexate], where the note is “read-out: inhibition of growth of keratinocytes”, the inhibition at 0.1 µM is 32%.
